Test results taken from patent publication US20250346576A1, “KCNT1 INHIBITORS COMPRISING A PYRAZOLE CORE AND METHODS OF USE” (PRAXIS PRECISION MEDICINES, INC., priority 2022, published 2025).

How the values were obtained:
[1] = biological target: T1, KCNT1 (KNa1.1, Slack) (Homo sapiens, UniProt Q5JUK3); assay: KCNT1 patch clamp assay (SyncroPatch 384PE, tetracycline inducible HEK-TREX cell line); type: cell-based; conditions: WT KCNT1, HEK-TREX cells, perforated patch, step from -80 mV to 0 mV, room temperature; read-out: WT (KCNT1 inhibition IC50)
T1 construct: expressed in transfected cells; host or cells: HEK-TREX (tetracycline inducible cell line)
T1 sequence (Q5JUK3 1-1230): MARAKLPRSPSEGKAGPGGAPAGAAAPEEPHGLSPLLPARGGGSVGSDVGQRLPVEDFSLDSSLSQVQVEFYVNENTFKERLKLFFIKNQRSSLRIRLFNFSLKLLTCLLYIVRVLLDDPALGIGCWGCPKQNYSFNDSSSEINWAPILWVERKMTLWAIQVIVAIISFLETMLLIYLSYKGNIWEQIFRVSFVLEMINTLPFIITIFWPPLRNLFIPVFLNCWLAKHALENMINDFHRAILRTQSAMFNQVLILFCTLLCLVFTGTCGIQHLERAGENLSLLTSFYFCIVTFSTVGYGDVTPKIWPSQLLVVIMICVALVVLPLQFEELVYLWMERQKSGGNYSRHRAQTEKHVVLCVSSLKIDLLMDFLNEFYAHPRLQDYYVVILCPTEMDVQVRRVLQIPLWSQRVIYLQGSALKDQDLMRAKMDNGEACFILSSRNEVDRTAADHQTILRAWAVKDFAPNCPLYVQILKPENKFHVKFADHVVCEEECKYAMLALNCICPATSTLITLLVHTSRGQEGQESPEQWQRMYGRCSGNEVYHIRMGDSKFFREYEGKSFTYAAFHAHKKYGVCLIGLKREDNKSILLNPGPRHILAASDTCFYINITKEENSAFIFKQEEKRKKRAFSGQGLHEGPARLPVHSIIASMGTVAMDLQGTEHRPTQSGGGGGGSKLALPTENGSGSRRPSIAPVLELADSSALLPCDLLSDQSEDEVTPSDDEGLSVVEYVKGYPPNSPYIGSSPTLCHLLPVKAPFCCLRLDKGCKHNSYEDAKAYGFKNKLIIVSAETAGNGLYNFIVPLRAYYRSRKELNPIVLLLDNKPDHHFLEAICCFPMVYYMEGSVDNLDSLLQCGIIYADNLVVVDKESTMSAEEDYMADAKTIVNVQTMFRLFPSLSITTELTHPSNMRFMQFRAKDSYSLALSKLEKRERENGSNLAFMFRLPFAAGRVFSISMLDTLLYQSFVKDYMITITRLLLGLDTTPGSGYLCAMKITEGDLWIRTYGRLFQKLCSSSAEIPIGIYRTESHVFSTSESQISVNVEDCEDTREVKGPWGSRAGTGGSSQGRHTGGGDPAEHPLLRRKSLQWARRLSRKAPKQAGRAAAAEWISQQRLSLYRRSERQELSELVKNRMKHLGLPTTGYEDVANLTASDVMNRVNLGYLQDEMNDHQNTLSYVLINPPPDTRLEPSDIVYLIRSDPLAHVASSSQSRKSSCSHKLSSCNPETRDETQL
Experimental: Inhibition of KCNT1 (KNa1.1, Slack) was evaluated using a tetracycline inducible cell line (HEK-TREX). Currents were recorded using the SyncroPatch 384PE automated, patch clamp system. Pulse generation and data collection were performed with PatchController384 V1.3.0 and DataController384 V1.2.1 (Nanion Technologies). The access resistance and apparent membrane capacitance were estimated using built-in protocols. Current was recorded in perforated patch mode (10 μM escin) from a population of cells. The cells were lifted, triturated, and resuspended at 800,000 cells/ml. The cells were allowed to recover in the cell hotel prior to experimentation. Currents were recorded at room temperature. The external solution contained the following (in mM): NaCl 105, NMDG 40, KCl 4, MgCl2 1, CaCl2 5, and HEPES 10 (pH=7.4, Osmolarity ˜300 mOsm). The extracellular solution was used as the wash, reference, and compound delivery solution. The internal solution contained the following (in mM): NaCl 70, KF 70, KCl 10, EGTA 5, HEPES 5, and Escin 0.01 (pH=7.2, Osmolarity ˜295 mOsm). Escin is made at a 5 mM stock in water, aliquoted, and stored at −20° C. The compound plate was created at 2× concentrated in the extracellular solution. The compound was diluted to 1:2 when added to the recording well. The amount of DMSO in the extracellular solution was held constant at the level used for the highest tested concentration. A holding potential of −80 mV with a 100 ms step to 0 mV was used. Mean current was measured during the step to 0 mV. […] The average mean current from 3 sweeps was calculated and the percent inhibition of each compound was calculated. The percent inhibition as a function of the compound concentration was fit with a Hill equation to derive IC50, slope, minimum parameters, and maximum parameters. If KCNT1 inhibition was less than 50% at the highest tested concentration or if an IC50 could not be calculated, then a percent inhibition was reported in place of the IC50.
In this table, “A” indicates IC50 of less than or equal to 1 μM; “B” indicates inhibition of between 1 μM to 20 μM; and “C” indicates inhibition of greater than or equal to 20 μM.

[2] = Kinetic solubility assay (shake flask, HPLC-UV); type: physicochemical; conditions: aqueous buffer, kinetic from dmso stock, 50 mM pH 7.4 phosphate buffer, room temperature
Experimental: Kinetic Solubility Assay: The Kinetic solubility assay employed the shake flask method followed by HPLC-UV analysis. The following step-wise procedure is used: • 1) Weigh and dissolve the samples in 100% DMSO as the stock solution of 10 mM. About 10 μL (compound/Media) of stock solution is needed in this assay. • 2) Add the test compounds and controls (10 mM in DMSO, 10 μL/vial) into the 50 mM pH 7.4 phosphate buffer (490 μL/well) placed in a Mini-Uniprep filter. • 3) Vortex the samples of kinetic solubility for 2 minutes. • 4) Incubate and shake the solubility solutions on an orbital shaker with 800 rpm at room temperature for 24 hours. • 5) Centrifuge at 4000 rpm, 20° C. for 10 minutes. • 6) Transfer 400 μL (with or without dilution) of each solubility supernatant into 96-deep well for analysis after the samples will be directly filtered by the syringeless filter device. • 7) Determine the test compound concentration of the filtrate using HPLC-UV. • 8) Inject at least 5 UV standard solutions into HPLC from low to high concentration subsequently and then test the Kinetic solubility supernatant in duplicate. • 9) Use the QC samples to monitor Kinetic solubility determination process.

Row | IC50 [1] [nM] | solubility kinetic at 24 h [2] [µM] | SMILES
1 | ≤ 1000 | < 1.6 | Cn1nc(C(F)(F)F)cc1C(=O)NC(C)(C)c1cc(-c2ccnc(C(F)(F)F)c2)nn1C [Compound 1063, 1-methyl-N-(2-(1-methyl-3-(2-(trifluoromethyl)pyridin-4-yl)-1H-pyrazol-5-yl)propan-2-yl)-3-(trifluoromethyl)-1H-pyrazole-5-carboxamide]
2 | ≤ 1000 | < 1.6 | Cn1nc(C(F)(F)F)cc1C(=O)NC1(c2cc(-c3ccnc(C(F)(F)F)c3)nn2C)CCC1 [Compound 1064, 1-methyl-N-(1-(1-methyl-3-(2-(trifluoromethyl)pyridin-4-yl)-1H-pyrazol-5-yl)cyclobutyl)-3-(trifluoromethyl)-1H-pyrazole-5-carboxamide]
